In PMC5578959, “Selective LRRK2 kinase inhibition reduces phosphorylation of endogenous Rab10 and Rab12 in human peripheral mononuclear blood cells” (Scientific Reports, 2017):

Tests used:
Assay in all cases: KiNativ profiling in human PBMCs
Assay type in all cases: binding
MLK3 = test system: T1, MLK3
T1 construct: purchased ActivX Technologies (KiNativ)
Procedure: (§1) Compounds were shipped to ActivX Technologies (San Diego, US) where LRRK2 target engagement and broad kinase profiling was performed using KiNativ™ procedures. Live cell treatment of human peripheral blood mononuclear cells (PBMCs) at two compound concentrations (1 µM and 0.1 µM) were used to evaluate and compare in vitro target engagement and kinase selectivity, respectively (see Supplementary File 1).

SLK = test system: T2, SLK
T2 construct: purchased ActivX Technologies (KiNativ)
Procedure: as §1

NDR2 = test system: T3, NDR2
T3 construct: purchased ActivX Technologies (KiNativ)
Procedure: as §1

p38a = test system: T4, p38a
T4 construct: purchased ActivX Technologies (KiNativ)
Procedure: as §1

MST1,MST2 = details: Lys2
Procedure: as §1

FGR = test system: T5, FGR; details: Activation Loop
T5 construct: purchased ActivX Technologies (KiNativ)
Procedure: as §1

RSK2 domain2 = test system: T6, RSK2 domain2; details: Lys2
T6 construct: RSK2 domain2; purchased ActivX Technologies (KiNativ)
Procedure: as §1

QSK = test system: T7, QSK; details: Lys1
T7 construct: purchased ActivX Technologies (KiNativ)
Procedure: as §1

BTK = test system: T8, BTK
T8 construct: purchased ActivX Technologies (KiNativ)
Procedure: as §1

FES = test system: T9, FES; details: Lys1
T9 construct: purchased ActivX Technologies (KiNativ)
Procedure: as §1

MAP3K15,MAP3K5,MAP3K6 = details: Lys1
Procedure: as §1

PKR = test system: T10, PKR
T10 construct: purchased ActivX Technologies (KiNativ)
Procedure: as §1

BARK1 = test system: T11, BARK1; details: Lys2
T11 construct: purchased ActivX Technologies (KiNativ)
Procedure: as §1

RSK1 domain1 = test system: T12, RSK1 domain1
T12 construct: RSK1 domain1; purchased ActivX Technologies (KiNativ)
Procedure: as §1

PIP5K3 = test system: T13, PIP5K3; details: ATP
T13 construct: purchased ActivX Technologies (KiNativ)
Procedure: as §1

MARK1,MARK2 = details: Lys1
Procedure: as §1

LYN = test system: T14, LYN
T14 construct: purchased ActivX Technologies (KiNativ)
Procedure: as §1

MARK2,MARK3 = details: Lys2
Procedure: as §1

MST2 = test system: T15, MST2; details: Lys1
T15 construct: purchased ActivX Technologies (KiNativ)
Procedure: as §1

ULK1 = test system: T16, ULK1; details: Lys2
T16 construct: purchased ActivX Technologies (KiNativ)
Procedure: as §1

PYK2 = test system: T17, PYK2
T17 construct: purchased ActivX Technologies (KiNativ)
Procedure: as §1

Wnk1,Wnk2 = details: ATP Loop
Procedure: as §1

BRAF = test system: T18, BRAF; details: Lys2
T18 construct: purchased ActivX Technologies (KiNativ)
Procedure: as §1

JAK3 domain2 = test system: T19, JAK3 domain2
T19 construct: JAK3 domain2; purchased ActivX Technologies (KiNativ)
Procedure: as §1

TAO2 = test system: T20, TAO2; details: Lys2
T20 construct: purchased ActivX Technologies (KiNativ)
Procedure: as §1

PIP4K2A = test system: T21, PIP4K2A; details: ATP
T21 construct: purchased ActivX Technologies (KiNativ)
Procedure: as §1

CDK11,CDK8 = details: Lys2
Procedure: as §1

NDR1 = test system: T22, NDR1
T22 construct: purchased ActivX Technologies (KiNativ)
Procedure: as §1

MAP2K5 = test system: T23, MAP2K5
T23 construct: purchased ActivX Technologies (KiNativ)
Procedure: as §1

Wnk1,Wnk2,Wnk4 = details: Activation Loop
Procedure: as §1

PRP4 = test system: T24, PRP4
T24 construct: purchased ActivX Technologies (KiNativ)
Procedure: as §1

GSK3A = test system: T25, GSK3A; details: Lys2
T25 construct: purchased ActivX Technologies (KiNativ)
Procedure: as §1

CHK2 = test system: T26, CHK2
T26 construct: purchased ActivX Technologies (KiNativ)
Procedure: as §1

Erk5 = test system: T27, Erk5; details: Lys2
T27 construct: purchased ActivX Technologies (KiNativ)
Procedure: as §1

SMG1 = test system: T28, SMG1; details: ATP
T28 construct: purchased ActivX Technologies (KiNativ)
Procedure: as §1

Cn1cc(-c2c[nH]c3ncnc(N4CCOCC4)c23)cc1C#N [PFE-360]
% Inhibition (MLK3; 0.1µM, Lys1): 5%
% Inhibition (MLK3; 0.1µM, Lys2): -4.6%
% Inhibition (MLK3; 1µM, Lys1): -5.6%
% Inhibition (MLK3; 1µM, Lys2): 10.2%
% Inhibition (SLK; 0.1µM, Lys1): 3.8%
% Inhibition (SLK; 0.1µM, Lys2): 4.8%
% Inhibition (SLK; 1µM, Lys1): 22.3%
% Inhibition (SLK; 1µM, Lys2): -8.4%
% Inhibition (NDR2; 0.1µM, Lys1): -18.6%
% Inhibition (NDR2; 0.1µM, Lys2): 2.7%
% Inhibition (NDR2; 1µM, Lys1): -5.5%
% Inhibition (NDR2; 1µM, Lys2): -8.1%
% Inhibition (p38a; 0.1µM, Lys2): 7.1%
% Inhibition (p38a; 0.1µM, Protein Kinase Domain): 7.5%
% Inhibition (p38a; 1µM, Lys2): -2.9%
% Inhibition (p38a; 1µM, Protein Kinase Domain): 1%
% Inhibition (MST1,MST2; 0.1µM): 15%
% Inhibition (MST1,MST2; 1µM): 39.1%
% Inhibition (FGR; 0.1µM): -2.5%
% Inhibition (FGR; 1µM): -6.6%
% Inhibition (RSK2 domain2; 0.1µM): -7.4%
% Inhibition (RSK2 domain2; 1µM): -13.8%
% Inhibition (QSK; 0.1µM): -13%
% Inhibition (QSK; 1µM): -12.1%
% Inhibition (BTK; 0.1µM, Activation Loop): -5.6%
% Inhibition (BTK; 0.1µM, Lys1): -12.3%
% Inhibition (BTK; 1µM, Activation Loop): -15.5%
% Inhibition (BTK; 1µM, Lys1): 2.1%
% Inhibition (FES; 0.1µM): -0.3%
% Inhibition (FES; 1µM): -5.7%
% Inhibition (MAP3K15,MAP3K5,MAP3K6; 0.1µM): 26.2%
% Inhibition (MAP3K15,MAP3K5,MAP3K6; 1µM): 53.5%
% Inhibition (PKR; 0.1µM, Activation Loop): -1.7%
% Inhibition (PKR; 0.1µM, Lys2): -0.1%
% Inhibition (PKR; 1µM, Activation Loop): -6.6%
% Inhibition (PKR; 1µM, Lys2): -9.3%
% Inhibition (BARK1; 0.1µM): -4.8%
% Inhibition (BARK1; 1µM): -29.7%
% Inhibition (RSK1 domain1; 0.1µM, Activation Loop): 4.6%
% Inhibition (RSK1 domain1; 0.1µM, Lys1): -11.3%
% Inhibition (RSK1 domain1; 0.1µM, Lys2): -4.4%
% Inhibition (RSK1 domain1; 1µM, Activation Loop): 1.1%
% Inhibition (RSK1 domain1; 1µM, Lys1): 3.4%
% Inhibition (RSK1 domain1; 1µM, Lys2): 10.9%
% Inhibition (PIP5K3; 0.1µM): -6.1%
% Inhibition (PIP5K3; 1µM): -15.9%
% Inhibition (MARK1,MARK2; 0.1µM): 6.2%
% Inhibition (MARK1,MARK2; 1µM): 3.2%
% Inhibition (LYN; 0.1µM, Activation Loop): 7.3%
% Inhibition (LYN; 0.1µM, Lys1): -30.4%
% Inhibition (LYN; 1µM, Activation Loop): 7.8%
% Inhibition (LYN; 1µM, Lys1): 7.4%
% Inhibition (MARK2,MARK3; 0.1µM): -16.2%
% Inhibition (MARK2,MARK3; 1µM): 16.7%
% Inhibition (MST2; 0.1µM): 15.1%
% Inhibition (MST2; 1µM): 48%
% Inhibition (ULK1; 0.1µM): 9.8%
% Inhibition (ULK1; 1µM): 4.2%
% Inhibition (PYK2; 0.1µM, Activation Loop): 8.4%
% Inhibition (PYK2; 0.1µM, Lys1): 29.3%
% Inhibition (PYK2; 1µM, Activation Loop): 7.1%
% Inhibition (PYK2; 1µM, Lys1): -2.2%
% Inhibition (Wnk1,Wnk2; 0.1µM): -5.4%
% Inhibition (Wnk1,Wnk2; 1µM): -15.3%
% Inhibition (BRAF; 0.1µM): -13.9%
% Inhibition (BRAF; 1µM): -14.3%
% Inhibition (JAK3 domain2; 0.1µM, Activation Loop): 6.4%
% Inhibition (JAK3 domain2; 0.1µM, Lys1): 2.6%
% Inhibition (JAK3 domain2; 1µM, Activation Loop): 7.7%
% Inhibition (JAK3 domain2; 1µM, Lys1): -7.6%
% Inhibition (TAO2; 0.1µM): 1.1%
% Inhibition (TAO2; 1µM): -26.1%
% Inhibition (PIP4K2A; 0.1µM, peptide AKELPTLKDNDFINEGQK): -3.9%
% Inhibition (PIP4K2A; 0.1µM, peptide YIIKTITSEDVAEMHNILK): -34.5%
% Inhibition (PIP4K2A; 1µM, peptide AKELPTLKDNDFINEGQK): -16.3%
% Inhibition (PIP4K2A; 1µM, peptide YIIKTITSEDVAEMHNILK): -40%
% Inhibition (CDK11,CDK8; 0.1µM): -9.1%
% Inhibition (CDK11,CDK8; 1µM): 9.6%
% Inhibition (NDR1; 0.1µM, Lys1): -16.4%
% Inhibition (NDR1; 0.1µM, Lys2): 5.8%
% Inhibition (NDR1; 1µM, Lys1): -6%
% Inhibition (NDR1; 1µM, Lys2): 1.6%
% Inhibition (MAP2K5; 0.1µM, Lys1): 4.7%
% Inhibition (MAP2K5; 0.1µM, Lys2): -4.6%
% Inhibition (MAP2K5; 1µM, Lys1): -10.3%
% Inhibition (MAP2K5; 1µM, Lys2): 31.9%
% Inhibition (Wnk1,Wnk2,Wnk4; 0.1µM): 4.7%
% Inhibition (Wnk1,Wnk2,Wnk4; 1µM): 2.2%
% Inhibition (PRP4; 0.1µM, Lys2): -12.1%
% Inhibition (PRP4; 0.1µM, Protein Kinase Domain): -9.2%
% Inhibition (PRP4; 1µM, Lys2): -13.6%
% Inhibition (PRP4; 1µM, Protein Kinase Domain): -18%
% Inhibition (GSK3A; 0.1µM): 10.6%
% Inhibition (GSK3A; 1µM): 19.8%
% Inhibition (CHK2; 0.1µM, Lys1): 3.6%
% Inhibition (CHK2; 0.1µM, Lys2): -6.7%
% Inhibition (CHK2; 1µM, Lys1): -2.7%
% Inhibition (CHK2; 1µM, Lys2): -12.6%
% Inhibition (Erk5; 0.1µM): 5%
% Inhibition (Erk5; 1µM): 7.2%
% Inhibition (SMG1; 0.1µM, peptide DTVTIHSVGGTITILPTKTKPK): -4.6%
% Inhibition (SMG1; 0.1µM, peptide SYPYLFKGLEDLHLDER): 7%
% Inhibition (SMG1; 1µM, peptide DTVTIHSVGGTITILPTKTKPK): -3%
% Inhibition (SMG1; 1µM, peptide SYPYLFKGLEDLHLDER): -11.6%
